Earlier results on 1 compound are cited in patent US11331266B1, “Antioxidant free, norepinephrine bitartrate injection in amber glass vials” (Medefil, Inc., priority 2020, dated 2022).

For the data set the following is noted: literature, Int. J. Toxicol. 2002; 21 Suppl 2:19-94.

As for `COc1ccc(O)c(C(C)(C)C)c1` [butylated hydroxyl anisole], the organ damage entry is “some renal and hepatic damage”.
